Measured values published in patent US11364211B2, “Methods for selecting phosphatase selective and non-selective phosphatase inhibitors” (MEDICAL RESEARCH COUNCIL, priority 2015, dated 2022).
“Also recorded” adds a separate entry of the source.

Assays:
PP1c [1] = target: T1, PP1c (Homo sapiens, UniProt P36873); test: PP1c catalytic activity assay (EnzChek); assay type: biochemical; conditions: purified PP1c 30 nM, 30 minutes at 4° C.
Method: Residual activity of PP1c was then measured using the EnzChek Phosphatase Assay Kit (Thermo Fisher Scientific) according to the supplier's instructions.

[2] = system: dorsal root ganglia culture (DRG) from PMP22 mutant mice; test: Myelination in DRG cultures from PMP22 mutant mice; assay type: cell-based, mouse; conditions: 5 nM compound, 14 days
Method: Dorsal root ganglia (DRG) dissected from wild-type or Pmp22Tr-J (PMP22mutant) (Henry et al., Neuropathol. Exp. Neurol., 42, 688-706, 1983) embryo at 13.5 or […] (E13.5) were cultured on collagen coated coverslips in neurobasal media supplemented with 4 g/l glucose, 2 mM L-glutamine, 2% B27 supplement and 50 ng/ml neuronal growth factor (NGF) for 7 days. To differentiate Schwann cells and induce myelination, the cultured DRGs were then maintained in C-media (MEM media supplemented with 4 g/l glucose, 2 mM L-glutamine, 10% FCS, 50 ng/ml NGF). The C-media was replaced every other day with freshly added 50 μg/ml ascorbic acid ±5 nM of compound of Example I and cultured for 14 days for myelination by the Schwann cells. The cultured DRGs were then fixed in 4% paraformaldehyde and immunostained with MBP (Rat Myelin basic protein, 1/250 dilution, ab73498).

[3] = system: eIF2α phosphorylation in HeLa cells; test: eIF2α phosphorylation in cells in the absence of stress (immunoblot); assay type: cell-based, human; conditions: for eIF2α phosphorylation in the absence of stress: human/HeLa cells, basal conditions, TST3 at 10 μM
Method: For immunoblots, HeLa cells (80,000 cells/ml) were plated in 12-well plates 24 hours before each experiment. Immediately after the indicated treatments, cells were lysed in 75 μl Laemmli Buffer, boiled at 95° C. for 5 minutes and sonicated. Proteins were separated and analysed as described (Tsaytler et al., Science, 332, 91-94, 2011) with the following antibodies: phospho-elf2α [pS52] and PPP1R15A/GADD34 (10449-1-AP; ProteinTech Group, 1/1000 dilution).
Human cells were treated with a PPP1R15B inhibitor and eIF2α phosphorylation was monitored over time. […] This was manifested between 1 and 7.5 hours after addition of the compound of Example 1. […] Indeed, the inventors noticed that PPP1R15A was induced at the late time points following addition of the compound of Example 1 (see Assay 3). […] Furthermore, this establishes that the compound of Example 1 spares PPP1R15A. This assay can serve to identify other selective PPP1R15B inhibitors.
Cells (90,000 cells/ml) were plated in a 24-well plate and treated as indicated. At the end of treatment cells were lysed in 150 μl Laemmli Buffer. Lysates were boiled at 95° C. for 5 minutes, sonicated and resolved on 4-12% Bolt Bis-Tris Plus Gels (Thermo Fisher Scientific). Proteins were transferred to the nitrocellulose membrane using the iBlot 2 system (Thermo Fisher Scientific) and analysed using the following antibodies: e-IF2α-P (44-728G, Thermo Fisher Scientific, 1:1000), e-IF2α (ab5369, Abcam, 1:1000), tubulin (T5168, Sigma-Aldrich, 1:4000), BiP (610978, BD Biosciences Pharmingen, 1:1000), ATF4 (sc-200, Santa Cruz Biotechnology, 1:500), Ppp1r15a (10449-1-AP, Proteintech, 1:1000) and Ppp1r15b (14634-1-AP, Proteintech, 1:1000). Proteins were visualized using ECL Prime (GE Healthcare).

HD-N171-82Q mice = test: Huntington's disease mouse model, motor performance (rotarod); assay type: in vivo; conditions: 2 mg/kg orally daily for 4 weeks
Method: To assess the efficacy of a compound of Example 1 in ameliorating a disease phenotype, 28-day old transgenic mice or littermate control were orally administered daily with a compound of Example 1 (2 mg/kg) or vehicle for a duration of 4 weeks. Disease progression was evaluated by weighting the mice during the treatment and by assessing their motor performances after 4 weeks of treatment.
Eight weeks old HD-N171-82Q mice and their wild-type littermates were first habituated for 1 min on a static rotor and 1 min at constant speed (4 rpm). Habituation was repeated. The test session consisted of four trials with 15 min intervals in between. For each trial 5 mice were placed on an accelerating rotor (4 to 40 rpm) and the latency to fall was recorded, with a maximum limit for individual animal set at 300 s.
To produce an experimental group HD-N171-82Q transgenic males were crossed with C3H/B6 F1 wild type females. 4 weeks old transgenic males and their wild type littermate male controls were randomized in different groups and treated with TST3 for 4 weeks.
TST3 treatment of HD-N171-82Q transgenic males and their wild type littermate male controls started at 4 weeks of age and was continued for 4 weeks before the test. […] In each trial mice were allowed to run on an accelerating rod from 4 to 40 rpm for up to 300 seconds and the latency to fall was counted. […]

PP1c [4] = target: T1, PP1c; test: SPR binding to PP1c alone immobilized on chip
Method: The streptavidin coated surface was activated by 1 minute injection with a solution of 50 mM NaOH and 1 M NaCl three times at a flow rate of 10 μl/min. bio-GBZ or bio-PP1c was diluted in the running buffer (50 mM Tris pH 7.5, 100 mM NaCl, 0.1 mM EGTA, 0.05% Tween 20, 0.1% DMSO) and injected at approximately 300 nM concentration at a flow rate of 10 μl/min directly to streptavidin coated surface to reach immobilization level of bio-GBZ or bio-PP1c corresponding to ˜200 and 6000 RU, respectively. A blank immobilization was performed for one of the SA sensor chip surface to use as a reference.
With minor deviations, the same procedure and conditions were used in all binding experiments. Small molecules were stored as 50 mM stock solutions in 100% DMSO. Prior to determining binding constants, serial dilutions of either 12 or 8 concentrations of the compounds were prepared in the running buffer in a 96-well plate. […] This was followed by 1 minute stabilization period, to wash off any unspecific binding. Then, without regenerating the surface, the compound dilution series was injected onto the surface of the chip at a flow rate of 30 μl/min for 1 minute, followed by 2 minutes dissociation time. […]
Kinetic experiments are carried out using different concentrations of the compound and their respective equilibrium binding levels determined.

T1 sequence (P36873 whole entry): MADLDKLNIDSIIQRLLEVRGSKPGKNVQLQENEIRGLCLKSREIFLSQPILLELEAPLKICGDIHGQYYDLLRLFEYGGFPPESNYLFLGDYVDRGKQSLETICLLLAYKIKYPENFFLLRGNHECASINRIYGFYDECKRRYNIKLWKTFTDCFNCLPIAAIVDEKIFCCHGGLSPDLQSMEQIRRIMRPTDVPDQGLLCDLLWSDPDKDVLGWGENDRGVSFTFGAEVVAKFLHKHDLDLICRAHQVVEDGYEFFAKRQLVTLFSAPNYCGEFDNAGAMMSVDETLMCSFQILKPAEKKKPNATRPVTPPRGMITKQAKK

Row | inhibition of PP1c in enzymatic assay (PP1c [1]) | binding to PP1c alone (in words) (PP1c [4]) | SMILES | inhibition of PP1c in enzymatic assay (PP1c [1]; listed as TST3) | myelination (length of myelin internodes) [2] | eIF2α phosphorylation in the presence of GBZ ([3]; HeLa cells, TST3+GBZ at 10 μM) | time after addition at which eIF2α phosphorylation returned to basal levels ([3]; absence of stress) | eIF2α phosphorylation in the absence of stress [3] | eIF2α phosphorylation in the absence of stress ([3]; listed as TST3) | motor performance / disease prevention in Huntington's disease mice (HD-N171-82Q mice)
1 | – | – | [H]/N=C(\N)NN=Cc1cccc(Cl)c1Cl [Example 1, (E)-2-(2,3-dichlorobenzylidene)hydrazine-1-carboximidamide] | does not inhibit PP1c; also recorded: doesn't inhibit PP1 | improved myelination; also recorded: increased the length of myelin internodes | persistently induces eIF2α phosphorylation; also recorded: rendered persistent | 10 h | induced eIF2α phosphorylation; also recorded: induces a transient phosphorylation of eIF2α | transiently induces eIF2α phosphorylation; also recorded: rapidly and transiently increased eIF2α phosphorylation | ameliorates Huntington's disease; also recorded: prevented the motor performances impairment; also recorded: preventing disease
2 | does not inhibit PP1c | not to PP1c alone | N=C(N)N/N=C/c1c(Cl)cccc1Cl [Guanabenz, reference compound] | – | – | – | – | did not affect | – | –
